Assay results taken from ChEMBL document CHEMBL1201862, “PubChem BioAssay data set” (2004).
Calls of active or inactive are those of the source.

Key:
[1] = molecular target: Adenosylmethionine-8-amino-7-oxononanoate aminotransferase (Mycobacterium tuberculosis, UniProt P9WQ81); test: Mycobacterium tuberculosis BioA enzyme inhibitor Measured in Biochemical System Using Plate Reader - 2163-02_Inhibitor_Dose_CherryPick_Activity.; assay type: functional, Mycobacterium tuberculosis UT205
[2] = molecular target: T1, Type-1 angiotensin II receptor (Homo sapiens, UniProt P30556); test: antagonism of angiotensin II type 1 receptor – cell-based, uHTS hits, selectivity assay for APJ receptor antagonist project, dose response (AID 463214); assay type: functional;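 note: antagonist potency against angiotensin II stimulated AT1 response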
T1 sequence (P30556 whole entry): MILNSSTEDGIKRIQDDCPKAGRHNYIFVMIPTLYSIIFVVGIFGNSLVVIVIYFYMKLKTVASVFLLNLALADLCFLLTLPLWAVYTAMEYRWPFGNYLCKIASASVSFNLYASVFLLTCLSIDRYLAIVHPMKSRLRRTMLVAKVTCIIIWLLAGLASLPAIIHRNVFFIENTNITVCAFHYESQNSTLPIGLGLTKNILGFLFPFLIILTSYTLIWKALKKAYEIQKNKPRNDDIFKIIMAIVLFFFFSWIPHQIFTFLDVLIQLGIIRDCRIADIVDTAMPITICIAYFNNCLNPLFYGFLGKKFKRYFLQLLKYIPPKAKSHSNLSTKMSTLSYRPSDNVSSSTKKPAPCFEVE

Beta-galactosidase = Beta-galactosidase (Escherichia coli, UniProt Q8VNN2); test: PubChem AID 485352; assay type: functional
[3] = THP-1 cell cytotoxicity, dose response, cytotoxicity control for non-replicating M. tuberculosis project (AID 489025); assay type: functional
cells = assay type: functional
[4] = viability of HCT116 lacking mutant beta-catenin – cell-based, human colon tumor, dose response (AID 1045); assay type: functional;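 note: HCT116 colon tumor cells with beta catenin knocked out; cells exposed to compound for 60 hours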
[5] = Vero E6 cell cytotoxicity, dose response, cytotoxicity control for non-replicating M. tuberculosis project, secondary assay (AID 492998); assay type: functional, VeroE6; details: Vero C1008
[6] = viability of PTEN-deleted HCT116 cells – cell-based, HCT116 PTEN knockout, dose response (AID 1047); assay type: functional;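 note: HCT116 colon tumor cells with PTEN knocked out; cells exposed to compound for 60 hours before readout; potency for loss of cell viability measured by luminescence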
[7] = molecular target: Tyrosine-protein phosphatase non-receptor type 5 (Homo sapiens, UniProt P54829); test: PTPN5 enzyme inhibition – biochemical, fluorescence intensity, uHTS hits, confirmation (AID 602372); assay type: functional; details: read-out: IC50_Mean
[8] = molecular target: Tyrosine-protein phosphatase non-receptor type 11 (Homo sapiens, UniProt Q06124); test: PTPN11 enzyme inhibitors – biochemical, selectivity assay for STEP inhibitor project, dose response (AID 602367); assay type: functional; details: read-out: IC50_Mean
[9] = molecular target: Dual specificity protein phosphatase 3 (Homo sapiens, UniProt P51452); test: VHR phosphatase inhibition, dose response, selectivity assay for STEP inhibitor project, biochemical (AID 602374); assay type: functional; details: read-out: IC50_Mean
[10] = system: Streptococcus sp. 'group A'; test: Streptococcus pyogenes SK(-)GAS viability under kanamycin – luminescence, BacTiterGlo, confirmation, counter-screen for streptokinase expression inhibitor project, dose response (AID 1900); assay type: functional, organism-based
Vero = test: viability of Vero cells under compound – cytotoxicity control for flavivirus capping enzyme inhibitors (AID 588742); assay type: functional; details: Chlorocebus sabaeus
Streptococcus = test: GAS UMAA2166 growth inhibition – luminescence, BacTiterGlo, counter-screen for streptokinase expression inhibitor project, dose response (AID 1915); assay type: functional, organism-based;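 note: potency for reduction of bacterial viability or growth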
INS1 = test: INS-1E survival protection against cytokine death – cell-based, luminescence, retest, dose response (AID 449756); assay type: functional; details: Rattus norvegicus;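 note: cell death triggered by IL-1 beta plus TNF-alpha plus IFN-gamma mixture; protective hits raise ATP signal compared with cytokine alone wells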
[11] = viability loss in THP-1 monocytes – THP-1 cells, cytotoxicity control for Vif-APOBEC3G degradation inhibitor project, dose response (AID 1117359); assay type: functional; details: THP-1
CAAX prenyl protease 2 = molecular target: T2, CAAX prenyl protease 2 (Homo sapiens, UniProt Q9Y256); test: inhibition of Ras-converting CAAX protease Rce1 – biochemical, yeast membranes, quenched-peptide fluorescence, cherry-pick, dose response (AID 588849)
T2 sequence (Q9Y256 whole entry): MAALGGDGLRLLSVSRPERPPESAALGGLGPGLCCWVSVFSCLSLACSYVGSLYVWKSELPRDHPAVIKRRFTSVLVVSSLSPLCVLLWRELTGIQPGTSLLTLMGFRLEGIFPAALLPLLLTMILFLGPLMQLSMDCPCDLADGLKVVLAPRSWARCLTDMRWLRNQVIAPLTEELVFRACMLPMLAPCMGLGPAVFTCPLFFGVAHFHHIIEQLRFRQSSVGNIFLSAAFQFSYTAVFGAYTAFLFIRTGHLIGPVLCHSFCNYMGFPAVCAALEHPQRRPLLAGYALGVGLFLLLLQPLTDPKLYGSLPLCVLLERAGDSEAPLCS

Sequence of Beta-galactosidase (Q8VNN2 whole entry): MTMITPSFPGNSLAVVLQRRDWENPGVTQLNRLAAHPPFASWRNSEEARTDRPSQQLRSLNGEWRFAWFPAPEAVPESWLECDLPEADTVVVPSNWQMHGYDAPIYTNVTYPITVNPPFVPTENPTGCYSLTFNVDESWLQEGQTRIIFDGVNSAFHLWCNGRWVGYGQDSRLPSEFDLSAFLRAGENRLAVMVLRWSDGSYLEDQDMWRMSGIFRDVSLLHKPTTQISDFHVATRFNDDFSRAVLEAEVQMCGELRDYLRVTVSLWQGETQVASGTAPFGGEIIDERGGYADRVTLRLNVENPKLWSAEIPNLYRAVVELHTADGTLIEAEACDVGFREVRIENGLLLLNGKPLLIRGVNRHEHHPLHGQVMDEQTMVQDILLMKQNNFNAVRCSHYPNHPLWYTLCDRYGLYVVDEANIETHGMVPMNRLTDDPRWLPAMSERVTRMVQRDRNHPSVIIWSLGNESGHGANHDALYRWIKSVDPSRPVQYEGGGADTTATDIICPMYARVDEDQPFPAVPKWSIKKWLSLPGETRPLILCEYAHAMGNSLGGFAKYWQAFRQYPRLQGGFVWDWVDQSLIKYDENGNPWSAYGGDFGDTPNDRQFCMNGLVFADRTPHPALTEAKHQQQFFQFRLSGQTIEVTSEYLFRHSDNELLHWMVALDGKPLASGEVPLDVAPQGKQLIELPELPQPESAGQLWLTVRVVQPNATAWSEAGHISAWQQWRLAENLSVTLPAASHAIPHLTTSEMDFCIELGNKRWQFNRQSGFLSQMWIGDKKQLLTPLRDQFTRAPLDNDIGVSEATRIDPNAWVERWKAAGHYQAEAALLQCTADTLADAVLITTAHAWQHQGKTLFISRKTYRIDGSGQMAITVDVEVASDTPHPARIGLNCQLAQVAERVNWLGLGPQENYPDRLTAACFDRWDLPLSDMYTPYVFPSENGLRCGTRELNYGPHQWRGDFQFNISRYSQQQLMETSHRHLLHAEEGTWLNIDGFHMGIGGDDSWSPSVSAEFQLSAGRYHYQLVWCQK
Sequence of Dual specificity protein phosphatase 3 (P51452 whole entry): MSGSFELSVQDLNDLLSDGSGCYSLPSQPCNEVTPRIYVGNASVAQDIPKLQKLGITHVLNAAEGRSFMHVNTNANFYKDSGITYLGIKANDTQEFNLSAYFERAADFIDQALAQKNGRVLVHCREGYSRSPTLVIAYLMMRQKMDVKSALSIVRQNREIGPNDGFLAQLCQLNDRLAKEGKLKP
Sequence of Tyrosine-protein phosphatase non-receptor type 5 (P54829 whole entry): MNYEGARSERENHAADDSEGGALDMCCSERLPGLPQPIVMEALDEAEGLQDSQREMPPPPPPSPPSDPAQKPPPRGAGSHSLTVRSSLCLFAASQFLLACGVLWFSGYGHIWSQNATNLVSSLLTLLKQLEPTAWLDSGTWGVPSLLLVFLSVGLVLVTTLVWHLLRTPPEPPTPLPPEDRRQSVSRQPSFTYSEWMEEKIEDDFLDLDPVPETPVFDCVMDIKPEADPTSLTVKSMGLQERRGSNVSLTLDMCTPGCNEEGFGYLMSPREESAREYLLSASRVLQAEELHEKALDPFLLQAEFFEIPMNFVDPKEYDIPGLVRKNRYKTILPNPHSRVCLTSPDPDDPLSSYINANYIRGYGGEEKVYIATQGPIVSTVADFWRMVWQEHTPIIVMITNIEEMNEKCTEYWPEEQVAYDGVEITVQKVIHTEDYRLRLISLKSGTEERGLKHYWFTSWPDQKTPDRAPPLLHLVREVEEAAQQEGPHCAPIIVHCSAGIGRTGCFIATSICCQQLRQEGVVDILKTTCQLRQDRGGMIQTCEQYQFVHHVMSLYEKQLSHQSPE
Sequence of Tyrosine-protein phosphatase non-receptor type 11 (Q06124 whole entry): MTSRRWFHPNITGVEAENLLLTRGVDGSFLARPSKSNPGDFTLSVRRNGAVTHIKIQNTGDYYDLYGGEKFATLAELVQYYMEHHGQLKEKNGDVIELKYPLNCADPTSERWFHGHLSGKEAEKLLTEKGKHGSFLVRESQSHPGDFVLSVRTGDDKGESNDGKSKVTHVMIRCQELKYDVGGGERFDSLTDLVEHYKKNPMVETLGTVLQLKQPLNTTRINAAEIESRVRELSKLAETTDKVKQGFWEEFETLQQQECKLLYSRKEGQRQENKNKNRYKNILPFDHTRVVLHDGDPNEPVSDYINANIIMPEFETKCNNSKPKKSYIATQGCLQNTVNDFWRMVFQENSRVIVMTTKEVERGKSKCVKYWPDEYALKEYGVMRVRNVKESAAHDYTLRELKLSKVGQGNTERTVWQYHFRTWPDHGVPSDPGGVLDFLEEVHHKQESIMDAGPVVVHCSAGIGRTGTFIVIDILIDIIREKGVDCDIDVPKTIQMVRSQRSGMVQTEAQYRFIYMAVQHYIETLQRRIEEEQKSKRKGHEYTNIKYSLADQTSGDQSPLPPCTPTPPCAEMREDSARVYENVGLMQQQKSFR
Sequence of Adenosylmethionine-8-amino-7-oxononanoate aminotransferase (P9WQ81 whole entry): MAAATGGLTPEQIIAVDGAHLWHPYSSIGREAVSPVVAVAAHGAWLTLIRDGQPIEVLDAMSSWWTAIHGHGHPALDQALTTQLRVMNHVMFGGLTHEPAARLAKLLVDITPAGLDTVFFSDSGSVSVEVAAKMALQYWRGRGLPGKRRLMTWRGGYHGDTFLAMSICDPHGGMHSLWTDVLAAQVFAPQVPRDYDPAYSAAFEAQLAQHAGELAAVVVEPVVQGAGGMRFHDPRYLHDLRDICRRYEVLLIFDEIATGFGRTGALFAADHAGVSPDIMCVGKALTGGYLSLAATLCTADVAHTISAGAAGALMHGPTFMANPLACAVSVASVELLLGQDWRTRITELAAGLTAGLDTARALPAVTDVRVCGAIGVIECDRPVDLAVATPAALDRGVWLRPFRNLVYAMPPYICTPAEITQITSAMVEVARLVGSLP

For `CC(C)n1c(N2CCN(C(=O)c3cccs3)CC2)nc2ccccc21`, the AC50 [1] was 10.6 µM (active).
For `CNS(=O)(=O)c1cccc(C(=O)OCC(=O)c2cc3ccccc3o2)c1`, the IC50 [2] was 15.5 µM (active) and the EC50 (Beta-galactosidase) was > 40 µM (inactive).
With `O=C1c2cccc3c([N+](=O)[O-])ccc(c23)C(=O)N1c1ccc(Cl)cn1` the CC50 [3] was 1.34 µM (active), the IC50 (cells) was 8.7 µM (active) and the IC50 [2] was 15.5 µM (active). For the same compound, the EC50 [4] was 0.905 µM (active), the CC50 [5] was 10.1 µM (active) and the EC50 [6] was 1.58 µM (active). The EC50 (Beta-galactosidase) was > 40 µM (inactive).
With `COc1ccccc1Nc1ccc([N+](=O)[O-])cc1N` the IC50 [7] was 34.5 µM (inactive), the IC50 [8] was 8.01 µM (active) and the IC50 [9] was 3.2 µM (active).
With `O=C1C(Cl)=C(Nc2ccc3c[nH]nc3c2)C(=O)c2ccccc21` the EC50 [10] was 0.928 µM (active), the CC50 (Vero) was 9.81 µM (active) and the EC50 (Streptococcus) was 15.1 µM (active). The AC50 (INS1) was 3.56 µM (active) and the CC50 [11] was 2.49 µM (active).
With `COC(=O)Cn1c(CCC(=O)O)ccc1-c1ccccc1` the AC50 (CAAX prenyl protease 2) was 32.7 µM (active).
